“Also recorded” adds a separate entry of the source.
Legend:
[1] = test system: SPF Wistar/AF male rats; experiment: Conditioned Defensive Burying test, overall stress score; format: in vivo, rat; conditions: for overall stress score during test 2: test 2 on day 8, 6 hours after administration (diazepam 3 mg/kg p.o. daily, 1 hour before test); for overall stress score: 5 ml/kg p.o. daily for 6 days
Procedure: The anxiolytic effect is evaluated using the Conditioned Defensive Burying model, which was developed from the procedure by J. P. PINEL and D. TREIT (PINEL and TREIT, J. Comp. & Physiol. Psychol., 92, 708-712, 1978; TREIT et al., Pharmacol. Biochem. Behav., 15, 619-626, 1981). This model uses the natural propensity of most rodents to bury themselves from a stressful source of stimulus (TREIT, Pharmacol. Biochem. Behav., 22, 1, 47-52, 1985; MEERT and COLPAERT, Psychopharmacology, 88, 445-450, 1986; CRAFT et al., Pharmacol. Biochem. Behav., 30, 3, 775-780, 1988; TREIT, Pharmacol. Biochem. Behav., 36, 203-205, 1990).
Seventy two SPF Wistar/AF male rats (IFFA-CREDO breeding center, 69—St-Germain sur l'Arbresle, France) weighing 320 to 340 g were used. On reception, the rats were weighed, marked and divided into groups of 4 in type F polycarbonate cages (48×27×20 cm, U.A.R., 91—Epinay-Sur-Orge, France). The animals were stalled in an air-conditioned animal house, at a temperature of 22-24° C. Food (M25 biscuits, Ets […], 77—Provins, France) and drink were available to the rats ad libitum. They were subjected to a light-darkness cycle of 12 hours (light from 24 h to 12 h).
After a week's familiarization with the laboratory conditions, the 72 rats were randomly divided into 6 groups (n=12). The rats in the different groups were all handled in the same way and under the same conditions.
Habituation and the tests were carried out in a transparent cage having the dimensions 44×28×18 cm, whose base is covered with sawdust over a thickness of 5 cm. In the middle of a lateral face, an orifice allows the attachment of an electric probe, 2 cm above the level of the sawdust.
It is a probe made of plexiglas having the dimensions 7×2×0.5 cm, covered with a copper printed circuit in which the gap between the wires is 1 mm, chosen so that one leg of the rat coming to rest on the probe easily makes contact between them, thus allowing the passage of current.
The probe is connected to a manually triggered generator of electric shocks of 0 to 8 mA (OPEN-SYSTEMS, 54—Maxeville, France).
In the faintly illuminated experimental room, a video camera was placed in front of the cage of the setup, at a distance of one meter. The camera is connected to a video recorder and to a control monitor, which are placed in an adjacent room with the electric shock generator.
The experiment was carried out according to a double blind design.
During the 2 days preceding the first test, the rats were transported from the animal house to the experimental room and introduced into the experimental device in order to habituate them to both the handling and to the cage of the device in the absence of the electrode. Each group of 4 rats was placed in the device for 20 minutes. The sawdust is changed, leveled to a uniform height of 5 cm, before the period of habituation of each of the groups.
The electric probe is inserted into the cage before the beginning of the first test. Each rat is placed in the experimental cage on the side opposite the probe.
During the first test (test 1), a single electric shock, of low intensity (2 mA) is delivered to the animal when it places a hind leg for the first time on the probe.
Following the electric shock, the behavior of each rat is recorded for 5 minutes. […] The probe is cleaned after each rat and the sawdust is changed and leveled to a uniform height of 5 cm before the test session for each cage of rats.
The products L, 3ST, 3S and 3S+P were orally administered daily at the same times, at the doses of 5 ml/kg by means of syringes provided with intragastric forced-feeding probes (HARVARD APPARATUS, 91—Les Ulis, France). The burying tests (test 1 on day 6 and test 2 on day 8) were carried out 6 hours after the administration of the products.
The positive control is diazepam (3 mg/kg), which was suspended in an aqueous solution of methyl cellulose at 1% and was orally administered daily, for the same period. […]

[2] = test system: SPF Wistar/AF male rats; experiment: Sedative effect (locomotive and exploratory activity) during the Conditioned Defensive Burying test; format: in vivo, rat; conditions: Example 2; test 1 on day 6; 5 ml/kg p.o. daily (diazepam 3 mg/kg p.o.)
Procedure: The tests were carried out according to the protocol described in example 2 above, on one hundred and fifty eight SPF Wistar/AF males (IFFA-CREDO breeding center, 69—St Germain sur Arbresles, France) weighing 260 to 280 g. After a week's familiarization with the laboratory conditions, the rats were randomly divided into 13 treatment groups. The rats of the various groups were handled in the same manner and under the same conditions.
All the products were orally administered daily for 6 days at the same times at the doses of 5 ml/kg using syringes equipped with intragastric forced-feeding probes (HARVARD APPARATUS, 91—Les Ulis, France). On the day for the test, they were administered 6 hours before the burying test.
number of […]: the rat adopts the vertical position while resting on its hind legs;
number of passes from one side of the cage to another.

SMILES: CN1C(=O)CN=C(c2ccccc2)c2cc(Cl)ccc21 [diazepam]
- overall stress score during test 1 ([1]; Example 2, 5 ml/kg p.o. daily, test 1 on day 6, 6 hours after administration (diazepam 3 mg/kg p.o. daily, 1 hour before test), vs. control product L): tends to reduce the overall stress score; also recorded: showed only a trend to reduce the overall stress score
- overall stress score during test 2 ([1]; Example 2, 5 ml/kg p.o. daily, vs. control product L): not significantly different from the product L
- overall stress score during test 2 ([1]; Example 2, 5 ml/kg p.o. daily, vs. control product L, listed as Diazepam): no effect which is statistically different from that of the control
- phenomenon of tolerance (habituation) between test 1 and test 2 ([1]; Example 2, daily oral administration, day 6 vs. day 8): phenomenon of tolerance observed
- overall stress score ([1]; Example 3, last dose 6 hours before test (diazepam 1-3 mg/kg p.o. over 6 days, 1 hour before test), vs. control product L): significantly lower overall stress scores; also recorded: significant antistress activity
- overall stress score ([1]; Example 5, test 1 hour after last dose (diazepam 1-3 mg/kg p.o., 1 hour before test), vs. control product L): significantly lower than that of the control product L
- sedative effect during test 1 [2]: sedative effect
